From patent publication US20250223300A1, “MACROCYCLIC COMPOUND AND PHARMACEUTICAL COMPOSITION AND USE THEREOF” (BETTA PHARMACEUTICALS CO., LTD, priority 2022, published 2025)

Tests used:
[1] = Metabolic stability of liver microsomes, mouse; assay type: in vitro ADME; details: NADPH, 0-45 min; for microsomal CLint: read-out: CLint(μL/min/mg protein) Mouse
Experimental: (§1) The liver microsomes of human, rat, mouse and dog were used to study the metabolic stability of the compounds. The specific experimental steps are as follows: • (1) Add 40 μL MgCl2 and 306 μL PBS to each well of a 96-well plate, and then add 4 μL compound, with a final DMSO concentration of ≤0.5%. Set up a blank well without compound; • (2) Add 10 μL of 20 mg/mL liver microsomes to each well, incubate at 37° C. for 10 min; • (3) Add 40 μL NADPH working solution to each well to start the reaction, and set up a control well without NADPH; • (4) At 0, 5, 15, and 45 min after the start of the reaction, 50 μL of sample was taken out, the termination solution was added, and the mixture was shaken for 5 min. • (5) The samples were then centrifuged at 3,220 g for 10 min, and 50 μL of the supernatant was removed and was added 200 μL water for dilution and analysis by LC-MS/MS.
(§2) The in vitro intrinsic clearance (in vitro CLint, in μL/min/mg) was calculated from the in vitro half-life t1/2 (minutes) using the following equation (mean of replicates):
(§3) In vitro clearance rate=0.693/in vitro half-life t1/2×[incubation volume (μL)/(protein amount (mg)]

[2] = target: Ba/F3 (EGFR Del19/C797S) (Homo sapiens, UniProt P00533, C797S, cells depend on it, form not given); test: Cell proliferation inhibitory activity assay, Ba/F3 EGFR Del19/C797S; assay type: cell-based; details: cell proliferation inhibition, 72 hours, luminescence; read-out: Ba/F3 cells overexpressing different EGFR mutations IC50 (nM) Del19/C797S
Experimental: (§4) Suspension cells Ba/F3 (EGFR. Dell9/T790M/C797S), Ba/F3 (EGFR L858R/T790M/C797S), Ba/F3 (EGFR Del19/C797S), and Ba/F3 (EGFR L858R/C797S) overexpressing different EGFR mutations were cultured in PRMI 1640 containing 10% FBS and 1% PS, and adherent cells A431 carrying EGFR WT were cultured in DMEM containing 10% FBS and 1% PS. The experimental steps for compound activity detection are as follows: • (1) Take adherent cells in the logarithmic growth phase, digest them with trypsin count them, and then inoculate them into a 96-well plate at a certain density. Incubate them overnight at 37° C. and 5% CO2 to allow them to adhere.
(§5) Y=minimum+([…])/(1+10^((Log IC50−X)*slope)); • X: logarithm of compound concentration; Y: cell survival inhibition rate.

[3] = target: Ba/F3 (EGFR L858R/T790M/C797S) (Homo sapiens, UniProt P00533, T790M/C797S/L858R, cells depend on it); test: Cell proliferation inhibitory activity assay, Ba/F3 EGFR L858R/T790M/C797S; assay type: cell-based; details: cell proliferation inhibition, 72 hours, luminescence; read-out: Ba/F3 cells overexpressing different EGFR mutations IC50 (nM) L858R/T790M/C797S
Experimental: as §4, §5

[4] = target: Ba/F3 cells overexpressing EGFR Del19/T790M/C797S (Homo sapiens, UniProt P00533, T790M/C797S, cells depend on it, form not given); test: Cell proliferation inhibitory activity assay, Ba/F3 EGFR Del19/T790M/C797S; assay type: cell-based; details: cell proliferation inhibition, 72 hours, luminescence; read-out: Ba/F3 cells overexpressing different EGFR mutations IC50 (nM) Del19/T790M/C797S
Experimental: as §4, §5

[5] = Metabolic stability of liver microsomes, rat; assay type: in vitro ADME; details: NADPH, 0-45 min; for microsomal CLint: read-out: CLint(μL/min/mg protein) Rat
Experimental: as §1, §2, §3

[6] = target: Ba/F3 (EGFR L858R/C797S) (Homo sapiens, UniProt P00533, C797S/L858R, cells depend on it); test: Cell proliferation inhibitory activity assay, Ba/F3 EGFR L858R/C797S; assay type: cell-based; details: cell proliferation inhibition, 72 hours, luminescence; read-out: Ba/F3 cells overexpressing different EGFR mutations IC50 (nM) L858R/C797S
Experimental: as §4, §5

[7] = Metabolic stability of liver microsomes, human; assay type: in vitro ADME; details: NADPH, 0-45 min; for microsomal CLint: read-out: CLint(μL/min/mg protein) Human
Experimental: as §1, §2, §3

[8] = test system: A431 cell carrying EGFR WT; test: Cell proliferation inhibitory activity assay, A431; assay type: cell-based; details: cell proliferation inhibition, 72 hours, luminescence
Experimental: as §4, §5

[9] = Pharmacokinetics in mice; assay type: in vivo, mouse; details: female BALB/c mice, 5 mg/kg orally by gavage, plasma
Experimental: Mouse PK studies were performed using female BALB/c mice (20-30 g). Compounds were prepared and prepared immediately before use. Mice were administered intravenously or orally by gavage. Blood was collected from the mouse orbital venous plexus, and 100 μL of whole blood was transferred to a K2-EDTA tube at each time point.
1 mg/kg was given intravenously, and whole blood was collected at 0.083, 0.25, 0.5, 1, 2, 4, 6 and 24 h after administration; 5 mg/kg were given orally by gavage, and whole blood was collected at 0.25, 0.5, 1, 2, 4, 6, 24 h after administration in different batches, or the mice were killed at 2, 4 and 6 h to obtain brains. Whole blood samples were centrifuged and plasma was separated; brain tissue samples were homogenized by adding 4 times the volume of buffer, and the plasma and brain tissue samples were stored in a −80° C. refrigerator for later use. After the above plasma and brain tissue samples were precipitated with acetonitrile for protein, the supernatant was taken and mixed with water in a 1:1 ratio, and 10 μL was taken for LC-MS/MS detection.

[10] = Pharmacokinetics in rats; assay type: in vivo, rat; details: male SD rats, 5 mg/kg orally by gavage, plasma
Experimental: Male SD rats (200-300 g) were used for rat PK studies. Compounds were prepared and prepared immediately before use. Rats were administered intravenously or orally by gavage. Blood was collected from the rats through the orbital venous plexus, and 100 μL whole blood was collected into K2-EDTA tubes at each time point.
1 mg/kg was given intravenously, and whole blood was collected at 0.083, 0,25, $0.5, 1, 2, 4, 7, 24, 48, and 72 h after administration; 5 mg/kg were given orally by gavage, and whole blood was collected at 0.25, 0.5, 1, 2, 4, 7, 24, 48, and 72 h after administration in different batches, or the rats were killed at 4 and 24 h to obtain brains. The brain tissue samples were homogenized by adding 4 times the volume of buffer, and the whole blood and brain tissue samples were stored in a −80° C. refrigerator for later use. After the above whole blood and brain tissue samples were precipitated with acetonitrile for protein, the supernatant was taken and mixed with water in a ratio of 1:2, and 10 μL was taken for LC-MS/MS detection.

| Compound | GI50 [2] [nM] | GI50 [3] [nM] | GI50 [4] [nM] | GI50 [6] [nM] | AUC(0-t) ([10]; rat, po) [ng·h/mL] | Cmax ([10]; rat, po, read-out: Cmax) [ng/mL] | half-life ([10]; rat, po) [h] | IC50 ([8]; Homo sapiens, A-431) [nM] | also measured |
| --- | --- | --- | --- | --- | --- | --- | --- | --- | --- |
| 5^6-(9-(3- methoxy- propyl)-3,9- diazaspiro[5.5] undecan-3-yl)- 2^6-methyl-5^1H- 11-oxa-4-aza- 5(2,1)-benzo[d] imidazola- 1(34),2(2,4)- dipyridinacyclo- undecaphan- 3-one [Example 76] | 0.09 | 0.2 | 0.14 | 0.34 | – | – | – | – | CLint(μL/min/mg protein) Mouse [1]: 23 μL/min/mg protein; CLint(μL/min/mg protein) Rat [5]: 15.6 μL/min/mg protein; CLint(μL/min/mg protein) Human [7]: 8 μL/min/mg protein; IC50 [8]: 586 nM |
| 5^6-(9-((2R,6S)-2,6- dimethyl- tetrahydro-2H- pyran-4-yl)-3,9- diazaspiro[5.5] undecan-3-yl)- 2^6-methyl-5^1H- 11-oxa-4-aza- 5(2,1)-benzo [d]imidazola- 1(3,4),2(2,4)- dipyridinacyclo- undecaphan- 3-one [Example 91] | 0.64 | 3.4 | 1.7 | 5.2 | – | – | – | – | AUClast [9]: 1495 ng·h/mL; Cmax [9]: 41.9 ng/mL; AUClast [10]: 1611 ng·h/mL; Cmax [10]: 42.5 ng/mL; T1/2 [10]: 26.4 h; IC50 [8]: 759 nM |
| CO[C@@H]1CCC(N2CCC3(CCN(c4ccc5nc6n(c5c4)CCCCCOc4ccncc4-c4cc(cc(C)n4)C(=O)N6)CC3)CC2)C[C@@H]1F (stereo partly drawn) [Example 15, 5^6-(9-((3S,4R)-3-fluoro-4-methoxypiperidin-1-yl)-3-azaspiro[5.5]undecan-3-yl)-2^6-methyl-5^1H-11-oxa-4-aza-5(2,1)-benzo[d]imidazola-1(3,4),2(2,4) -dipyridinacycloundecaphan-3-one] | – | – | – | – | 3390 | 104 | – | – | – |
| Cc1cc2cc(n1)-c1cnccc1OCCCCCn1c(nc3ccc(N4CCC5(CC4)CCN(C4COC4)CC5)cc31)NC2=O [Example 52, 2^6-methyl-5^6-(9-(oxetan-3-yl)-3,9-diazaspiro [5.5]undecan-3-yl)-5^1H-11-oxa-4-aza-5(2,1)-benzo[d] imidazola-1(3,4),2(2,4)-dipyridinacyclo-undecaphan-3-one] | 0.5 | 1.6 | 0.8 | 4.7 | 917 | 57.5 | 12.4 | 700 | AUC(0-t) ([9]; mouse, po): 3460 ng·h/mL; half-life ([9]; mouse, po): 20.1 h; Cmax ([9]; mouse, po, read-out: Cmax): 215 ng/mL |
| Cc1cc2cc(n1)-c1cnccc1OCCCCCn1c(nc3cc(C)c(N4CCC5(CCN(CCF)CC5)CC4)cc31)NC2=O [Example 59, 5^6-(9-(2-fluoroethyl)-3,9-diazaspiro[5.5]undecan-3-yl)-2^6,5^5-dimethyl-5^1H-11-oxa-4-aza-5(2,1)-benzo [d]imidazola-1(3,4),2(2,4)-dipyridinacyclo-undecaphan-3-one] | 0.45 | 3.7 | 2.4 | 5.7 | – | – | – | – | microsomal CLint [1]: 8.93 µL/min/mg; microsomal CLint [5]: 23.3 µL/min/mg; microsomal CLint [7]: 4.82 µL/min/mg |
| COCCCN1CCC2(CC1)CCN(c1ccc3nc4n(c3c1)C[C@H](C)CCCOc1ccncc1-c1cc(cc(C)n1)C(=O)N4)CC2 [Example 77, (R)-5^6-(9-(3-methoxypropyl)-3,9-diazaspiro [5.5]undecan-3-yl)-2^6,7-dimethyl-5^1H-11-oxa-4-aza-5(2,1)-benzo [d]imidazola-1(3,4),2(2,4)-dipyridinacyclo-undecaphan-3-one] | 0.23 | 0.36 | 0.36 | 0.18 | – | – | – | 426 | microsomal CLint [1]: 25.1 µL/min/mg; microsomal CLint [5]: 6.7 µL/min/mg; microsomal CLint [7]: 17 µL/min/mg |
| Cc1cc2cc(n1)-c1cnc(F)cc1OCCC[C@@H](C)Cn1c(nc3ccc(N4CCC5(CC4)CCN(C4COC4)CC5)cc31)NC2=O [Example 81, (R)-1^6-fluoro-2^6,7-dimethyl-5^6-(9-(oxetan-3-yl)-3,9-diazaspiro [5.5]undecan-3-yl)-5^1H-11-oxa-4-aza-5(2,1)-benzo[d] imidazola-1(3,4),2(2,4)-dipyridinacyclo-undecaphan-3-one] | 0.1 | 4.3 | 1.4 | 5.3 | 1840 | 116 | 18.8 | 1750 | – |
| COC(C)(C)CC(C)N1CCC2(CCN(c3ccc4nc5n(c4c3)CCCCCOc3ccncc3-c3cc(cc(C)n3)C(=O)N5)CC2)CC1 (stereo not shown) [Example 90, 5^6-(9-(4-methoxy-4-methylpentan-2-yl)-3,9-diazaspiro[5.5]undecan-3-yl)-2^6-methyl-5^1H-11-oxa-4-aza-5(2,1)-benzo[d] imidazola-1(3,4),2(2,4)-dipyridinacyclo-undecaphan-3-one] | 4 | 12 | 4.2 | 31 | – | – | – | 733 | – |
| Cc1cc2cc(n1)-c1cnn(C)c1OCCC[C@@H](C)CN1/C(=N/C2=O)Nc2ccc(CN3CCN(C)CC3)cc21 [compound 1, reference compound] | – | – | – | – | 96 | 10.5 | 2.94 | – | AUC(0-t) ([9]; mouse, po): 361 ng·h/mL; half-life ([9]; mouse, po): 4.22 h; Cmax ([9]; mouse, po, read-out: Cmax): 32.8 ng/mL |
| Cc1cc2cc(n1)-c1cnn(C)c1OCCC[C@@H](C)CN1/C(=N/C2=O)Nc2ccc(CN3CCC4(CC3)COC4)cc21 [compound 2, reference compound] | – | – | – | – | 132 | 27.3 | – | – | – |
